This note sets out measurements from PubChem BioAssay (NCI).

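Grown in 96-well plates, cells were treated for 48 hours with each compound at five concentrations. Insufficient inhibition: endpoint recorded as highest concentration tested. GI50: concentration for 50% inhibition of growth. The concentration for full growth arrest is given as TGI.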 Where a SMILES comes first, the peptide text is derived from it. The star is where a group is joined. Cbz = O=C(OCc1ccccc1)*

Among the test systems are OVCAR-8 ovarian; HCT-15 colon; UO-31 renal; SF-539 CNS; HOP-62 NSCLC; K-562 leukemia; OVCAR-4 ovarian; SK-OV-3 ovarian; MOLT-4 leukemia; 786-0 renal.
What all share (test): NCI anticancer screen, dose series, 48 h

Regarding `Cn1c(=O)c2nc(NCCO)cnc2n(C)c1=O`, the TGI in the experiment with OVCAR-8 ovarian was above 100 µM; in the experiment on HCT-15 colon, above 100 µM; in the experiment on UO-31 renal, above 100 µM; with SF-539 CNS, 88.7 µM; in the experiment on HOP-62 NSCLC, above 100 µM; in the experiment with K-562 leukemia it was above 100 µM. Moreover, the TGI with OVCAR-4 ovarian, with SK-OV-3 ovarian and with MOLT-4 leukemia was above 100 µM each time.
`Clc1cccc2c1OCC1C(c3ccccc3)=NN(c3ccccc3)C21` (centres undefined): the TGI in the experiment with OVCAR-8 ovarian, with UO-31 renal, in the experiment with HOP-62 NSCLC, with K-562 leukemia, in the experiment on SK-OV-3 ovarian and with 786-0 renal was above 100 µM each time. The TGI in the experiment with MOLT-4 leukemia is above 100 µM.
`CCOC(=O)CNC(=O)C(C)NC(=O)C(NC(=O)OCc1ccccc1)C(C)C` (stereo not drawn) (Cbz-Val-Ala-Gly-OEt; configuration not given here): the TGI with OVCAR-8 ovarian, in the experiment on HCT-15 colon, with UO-31 renal, in the experiment with SF-539 CNS, in the experiment on HOP-62 NSCLC and in the experiment on K-562 leukemia was above 100 µM each time. Besides, the TGI with SK-OV-3 ovarian, in the experiment with 786-0 renal and in the experiment on MOLT-4 leukemia was above 100 µM each time.
Regarding `CC(C)(SCc1ccccc1)C(N)C(=O)O` (centres undefined), the TGI in the experiment with OVCAR-8 ovarian, in the experiment on HCT-15 colon, in the experiment on UO-31 renal, in the experiment with HOP-62 NSCLC, with K-562 leukemia and in the experiment with OVCAR-4 ovarian was above 100 µM in each case. Moreover, the TGI with 786-0 renal and in the experiment with MOLT-4 leukemia was above 100 µM in each case.
Consider `O=C1CCCC[C@H]1C(O)CC1CC(=O)N(c2ccccc2)C(=O)C1` (some centres undefined), for which the TGI in the experiment with OVCAR-8 ovarian, in the experiment on HCT-15 colon, with UO-31 renal, in the experiment on SF-539 CNS, with HOP-62 NSCLC and with K-562 leukemia was above 100 µM in each case. Further, the TGI with OVCAR-4 ovarian, in the experiment on 786-0 renal and in the experiment on MOLT-4 leukemia was above 100 µM in each case.
As to `CC(=O)OC(=C(C#N)C#N)c1nccnc1C(C)=O`, the TGI in the experiment with OVCAR-8 ovarian, in the experiment on HCT-15 colon, with UO-31 renal, with SF-539 CNS, in the experiment on K-562 leukemia and in the experiment with OVCAR-4 ovarian was above 20 µM each time. Also, the TGI in the experiment with SK-OV-3 ovarian, in the experiment with 786-0 renal and in the experiment on MOLT-4 leukemia was above 20 µM throughout.
Regarding `O=C1Nc2ccccc2/C1=C\c1c(Cl)nc2n1CCS2`, the TGI with OVCAR-8 ovarian is above 100 µM; with HCT-15 colon, 64.5 µM; with UO-31 renal it was above 100 µM; in the experiment with HOP-62 NSCLC, above 100 µM; in the experiment on K-562 leukemia it was above 100 µM; in the experiment on OVCAR-4 ovarian it was above 100 µM. Besides, the TGI in the experiment with SK-OV-3 ovarian was determined as 74.9 µM; in the experiment with 786-0 renal, 60.6 µM; with MOLT-4 leukemia, 97.9 µM.
Take `O=C1CCCC2=C1CC1=C(CCCC1=O)N2c1cccc([N+](=O)[O-])c1`: the TGI in the experiment on OVCAR-8 ovarian, in the experiment on HCT-15 colon, in the experiment on UO-31 renal, in the experiment with SF-539 CNS, in the experiment on K-562 leukemia and with OVCAR-4 ovarian was above 100 µM in each case. In addition, the TGI with SK-OV-3 ovarian, with 786-0 renal and in the experiment with MOLT-4 leukemia was above 100 µM throughout.
Take `CCc1c(C)c2ccc(OCC(=O)N=Nc3c(O)[nH]c4ccccc34)c(C)c2oc1=O`: the GI50 in the experiment with UO-31 renal is above 33.3 µM; with SF-539 CNS, above 33.3 µM; in the experiment on K-562 leukemia it was 1.19 µM; with OVCAR-4 ovarian, 0.788 µM; in the experiment with MOLT-4 leukemia it was 1.15 µM. For the same compound, the TGI in the experiment on UO-31 renal was above 33.3 µM; in the experiment on SF-539 CNS, above 33.3 µM; with K-562 leukemia, above 33.3 µM; in the experiment with OVCAR-4 ovarian, 1.86 µM; in the experiment with MOLT-4 leukemia it was above 33.3 µM.
Consider `Cc1ccc(NC(=O)/C(=N\NC(N)=O)c2c(O)c3ccccc3[nH]c2=O)cc1`, for which the TGI with OVCAR-8 ovarian, with HCT-15 colon, in the experiment with UO-31 renal, in the experiment with SF-539 CNS, in the experiment with K-562 leukemia and with OVCAR-4 ovarian was above 100 µM throughout. The TGI in the experiment on SK-OV-3 ovarian, in the experiment with 786-0 renal and in the experiment with MOLT-4 leukemia was above 100 µM each time.
For `CCOC(=O)c1cn2c(ccc3sc4ccccc4c(=O)c32)n1`, the TGI in the experiment with OVCAR-8 ovarian, in the experiment with HCT-15 colon, in the experiment on UO-31 renal, in the experiment on SF-539 CNS, in the experiment on HOP-62 NSCLC and in the experiment with K-562 leukemia was above 100 µM each time. Also, the TGI in the experiment on 786-0 renal and in the experiment with MOLT-4 leukemia was above 100 µM each time.
On to `O=[N+]([O-])c1ccc(O)c(C=NCC2CCCN3CCCCC23)c1` (centres undefined), for which the TGI with OVCAR-8 ovarian, with HCT-15 colon, in the experiment on UO-31 renal, with SF-539 CNS, in the experiment with HOP-62 NSCLC and in the experiment on SK-OV-3 ovarian was above 100 µM throughout. In addition, in the experiment with 786-0 renal, the TGI is above 100 µM.
With `O=S(=O)(O)c1ccccc1N=Nc1ccc(N=Nc2c(O)ccc3ccccc23)c(S(=O)(=O)O)c1`, the TGI in the experiment with OVCAR-8 ovarian, in the experiment on HCT-15 colon, in the experiment on UO-31 renal, in the experiment on HOP-62 NSCLC, in the experiment with K-562 leukemia and in the experiment with OVCAR-4 ovarian was above 100 µM each time. The TGI in the experiment with SK-OV-3 ovarian, with 786-0 renal and with MOLT-4 leukemia was above 100 µM throughout.
As to `O=P1(Oc2ccccc2)NCc2ncccc2O1` (centres undefined), the TGI with OVCAR-8 ovarian, in the experiment with HCT-15 colon, in the experiment on UO-31 renal, in the experiment with SF-539 CNS, with HOP-62 NSCLC and in the experiment with K-562 leukemia was above 100 µM each time. Further, the TGI in the experiment on OVCAR-4 ovarian, in the experiment with 786-0 renal and with MOLT-4 leukemia was above 100 µM each time.
In the case of `CC(=O)OC1[C@H](n2ccnc2)C[C@H]2[C@@H]3CC=C4CC(N5CCCC5)CC[C@]4(C)[C@H]3CC[C@]12C` (some centres undefined), the TGI with OVCAR-8 ovarian was above 100 µM; in the experiment on HCT-15 colon, above 100 µM; in the experiment with UO-31 renal, above 100 µM; in the experiment on SF-539 CNS, 36.8 µM; in the experiment with K-562 leukemia, above 100 µM; in the experiment on OVCAR-4 ovarian it was above 100 µM. Also, the figures for the TGI in the experiment with 786-0 renal and in the experiment with MOLT-4 leukemia were above 100 µM and 48.8 µM, respectively.
